Data reported in patent publication US6228843A (priority 2000, dated 2001).

Experiments:
[1] = system: adult bovine pulmonary artery smooth muscle cells; type: cell-based
Protocol: (§1) Hypoxic growth was induced by priming with the PKC activator, 10 nM PMA. Proliferative response was measured by ^3 H-thymidine incorporation and cell counts. Isozyme expression was measured by Western blot.

PKC-α and β = assay: PKC activity in PA SMC preparation; type: cell-based, bovine
PKC-α [2] = target: T1, PKC-α (Bos taurus, UniProt P04409); assay: PKC isozyme expression by Western blot: PKC-α degradation; type: cell-based, bovine
T1 construct: proteolytic degradation of PKC-α in smooth muscle cells; endogenous in cells; host or cells: adult bovine pulmonary artery smooth muscle cells (PA SMC)
Protocol: as §1

PKC βI = target: T2, PKC βI (Bos taurus, UniProt P05126); assay: PKC isozyme expression by Western blot: βI; type: cell-based, bovine; settings: adult PA SMC
T2 construct: isozyme expressed in these adult cells (βI); endogenous in cells; host or cells: adult bovine pulmonary artery smooth muscle cells (PA SMC)
T2 sequence (P05126 whole entry): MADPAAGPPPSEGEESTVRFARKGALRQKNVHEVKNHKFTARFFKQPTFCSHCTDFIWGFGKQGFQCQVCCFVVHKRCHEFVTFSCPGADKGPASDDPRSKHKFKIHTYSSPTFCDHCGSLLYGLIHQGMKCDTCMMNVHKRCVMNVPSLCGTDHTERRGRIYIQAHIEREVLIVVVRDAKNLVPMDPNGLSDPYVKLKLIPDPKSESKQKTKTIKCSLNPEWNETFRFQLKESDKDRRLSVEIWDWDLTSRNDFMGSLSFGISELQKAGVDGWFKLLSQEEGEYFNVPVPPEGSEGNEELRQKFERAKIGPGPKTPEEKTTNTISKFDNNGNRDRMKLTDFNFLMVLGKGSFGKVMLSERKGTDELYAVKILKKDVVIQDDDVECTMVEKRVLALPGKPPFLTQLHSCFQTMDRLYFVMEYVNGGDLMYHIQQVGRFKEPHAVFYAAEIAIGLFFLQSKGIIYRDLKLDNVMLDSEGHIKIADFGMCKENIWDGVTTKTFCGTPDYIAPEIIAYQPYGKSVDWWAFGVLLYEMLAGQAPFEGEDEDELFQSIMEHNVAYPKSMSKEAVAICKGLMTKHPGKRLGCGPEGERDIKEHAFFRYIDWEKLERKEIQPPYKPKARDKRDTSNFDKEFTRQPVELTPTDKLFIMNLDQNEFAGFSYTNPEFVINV
Protocol: […]. Hypoxic growth was induced by priming with the PKC activator, 10 nM PMA. Proliferative response was measured by ^3 H-thymidine incorporation and cell counts. Isozyme expression was measured by Western blot. […]. […] […].

PKC-α [3] = target: T3, PKC-α (Mus musculus, UniProt P20444); assay: PKC-α protein levels in whole lung homogenates of treated mice; type: in vivo; settings: chronic treatment of mice
T3 construct: PKC-α protein levels in whole lung homogenates; from tissue; host or cells: whole lung homogenates of treated mice

| SMILES | hypoxia-induced PA SMC proliferation (FIG. 4) [1] | activity of PKC-α and β (FIG. 4) (PKC-α and β) | threshold concentration to induce PKC-α degradation (PKC-α [2]) [nM] | time at which PKC-α degradation is complete (PKC-α [2]; 100 nM) [h] | time at which PKC-α degradation is first detectable (PKC-α [2]; 100 nM) [h] | dose dependence of PKC-α degradation and hypoxic growth (FIG. 6) (PKC-α [2]; bovine PA SMC) | time dependence of PKC-α degradation (FIG. 5) (PKC-α [2]; bovine PA SMC) | degradation of Ca2+-dependent isozyme βI (PKC βI) | PKC-α protein levels in whole lung homogenates (FIG. 8) (PKC-α [3]) |
| --- | --- | --- | --- | --- | --- | --- | --- | --- | --- |
| Cn1c2ccccc2c2c3c(c4c5ccccc5n(CCC#N)c4c21)CNC3=O [Go6976] | inhibits hypoxia-induced PA SMC proliferation | inhibits activity of PKC-α and β |  |  |  |  |  |  |  |
| CCCC=CC=CC(=O)OC1C(=CC(=O)OC)CC2CC(C(C)O)OC(=O)CC(O)CC3CC(OC(C)=O)C(C)(C)C(O)(CC4CC(=CC(=O)OC)CC(C=CC(C)(C)C1(O)O2)O4)O3 (stereo not drawn) [bryostatin-1] |  |  | 10 | ≤ 24 | ≤ 1 | dose-dependent effect | time dependent | No degradation | decreases PKC-α protein levels |
